Results from patent publication US20150250786A1, “PYRIMIDINE HYDROXY AMIDE COMPOUNDS AS PROTEIN DEACETYLASE INHIBITORS AND METHODS OF USE THEREOF” (THE TRUSTEES OF THE UNIVERSITY OF PENNSYLVANIA, priority 2012, published 2015).
Values joined by “and” are separate entries in the source; they are usually repeats but may differ in a detail not shown here. Equal values may be shown once. Read-outs that look alike come from different tables or passages of the source.

How the values were obtained:
[1] = Pharmacokinetics and brain bio-distribution in mice; format: in vivo, mouse; details: mouse; for Kp: brain, calculated over 2 hours
Procedure: […] Plasma samples were taken from all mice upon sacrifice. Brain samples were taken from the mice sacrificed at 5 and 15 minutes and 1 and 4 hours. The brain samples were homogenized in PBS and centrifuged at 14000 rpm for 5 minutes. The supernatant from the brain homogenate and the plasma samples were injected onto a LC/MS/MS for analysis. The compound level in the samples was determined by a standard curve in the appropriate matrix. Pharmacokinetic parameters were determined from the raw data by WinNonLin.

[2] = biological target: HDAC3 (Homo sapiens, UniProt O15379); assay: HDAC enzyme assay, HDAC3
HDAC3, sequence (O15379 whole entry): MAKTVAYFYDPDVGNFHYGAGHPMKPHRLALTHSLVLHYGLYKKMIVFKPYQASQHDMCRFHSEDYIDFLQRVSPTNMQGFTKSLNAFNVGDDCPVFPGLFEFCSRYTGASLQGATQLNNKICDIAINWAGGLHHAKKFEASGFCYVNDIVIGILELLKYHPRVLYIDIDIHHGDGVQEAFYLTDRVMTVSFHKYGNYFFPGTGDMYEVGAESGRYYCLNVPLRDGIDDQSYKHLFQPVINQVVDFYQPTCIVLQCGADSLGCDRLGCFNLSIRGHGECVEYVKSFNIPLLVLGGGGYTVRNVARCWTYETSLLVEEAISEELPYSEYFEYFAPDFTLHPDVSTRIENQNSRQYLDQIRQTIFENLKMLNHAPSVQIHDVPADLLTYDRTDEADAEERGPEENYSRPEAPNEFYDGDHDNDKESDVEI
HDAC3, sequence (Q9Y618 395-489 partner limits assumed): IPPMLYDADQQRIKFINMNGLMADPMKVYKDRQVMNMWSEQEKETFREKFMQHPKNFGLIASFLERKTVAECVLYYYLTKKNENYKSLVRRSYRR

[3] = tested on: NIH Swiss mice; C57BL/6J HDAC6 WT and KO mice; assay: Tail suspension test (TST); format: in vivo, mouse; details: NIH Swiss mice
[4] = tested on: RN46A-B14 serotonergic cell line; assay: Histone H3K9 acetylation in RN46A-B14 cells (Western blot); format: cell-based, rat; details: 2.5 μM, 4 hours
[5] = tested on: all other class II HDAC isoforms; assay: HDAC inhibition, other class II isoforms; details: read-out: IC50 against all other class II HDAC isoforms
[6] = biological target: HDAC2 (Homo sapiens, UniProt Q92769); assay: HDAC enzyme assay, HDAC2
HDAC2, sequence (Q92769 whole entry): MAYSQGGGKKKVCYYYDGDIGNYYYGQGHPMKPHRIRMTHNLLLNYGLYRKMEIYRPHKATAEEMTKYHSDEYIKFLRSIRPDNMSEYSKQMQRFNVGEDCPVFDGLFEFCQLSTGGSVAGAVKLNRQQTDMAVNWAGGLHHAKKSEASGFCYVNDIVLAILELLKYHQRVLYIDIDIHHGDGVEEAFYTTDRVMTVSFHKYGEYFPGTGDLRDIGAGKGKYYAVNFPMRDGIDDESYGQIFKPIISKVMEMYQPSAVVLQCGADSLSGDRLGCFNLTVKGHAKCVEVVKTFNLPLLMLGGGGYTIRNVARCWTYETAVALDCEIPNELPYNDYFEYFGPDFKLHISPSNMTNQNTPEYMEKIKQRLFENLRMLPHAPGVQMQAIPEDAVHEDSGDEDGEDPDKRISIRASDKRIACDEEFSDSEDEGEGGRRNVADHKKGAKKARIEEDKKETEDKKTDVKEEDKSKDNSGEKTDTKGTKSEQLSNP

[7] = tested on: α-tubulin K40 acetylation in cortex, hippocampus, DRN, cerebellum; assay: α-tubulin acetylation in brain regions after subchronic administration, WT and HDAC6 KO mice; format: in vivo, mouse
Procedure: Results are shown as percent change normalized to the vehicle treatment condition. The horizontal hard line depicts average and the dotted lines depict SEM of the vehicle treated wells. Representative Western blot images are presented. […] Representative Western blot images are presented. […] […] The changes in tubulin acetylation were measured in tissue lysates from cortex (ctx), hippocampus (Hpc), dorsal Raphe nucleus (DRN) and cerebellum (cb). The tubulin acetylation levels in drug-treated mice are expressed as percent change of the vehicle-treated mice of the corresponding genotype. The horizontal lines depict the average tubulin acetylation±SEM in the vehicle treated mice. The representative Western blot images show the changes induced by each drug treatment in the hippocampus (left column) and dorsal raphe (right column) of WT and HDAC6 KO mice.

[8] = tested on: RN46A-B14 serotonergic cell line; assay: α-tubulin K40 acetylation in RN46A-B14 cells (Western blot); format: cell-based, rat; details: 4 hours; TSA 0.6 μM, others 2.5 μM
Procedure: In FIG. 3, it was observed that subchronic treatment, consisting of 5 treatments at 48, 28, 24, 4 and ½ hours before sacrifice, led to greater increase in tubulin acetylation than did chronic treatment of 1 injection/day for 21 days. For cell culture, RN46B cells were treated for with 0.25, 2.5 or 25 μM drug in DMSO for 1, 4 or 24 hours as indicated. Tukey post-hoc analysis: * P=0.01 to 0.05, ** P=0.001-0.01, ***P<0.001 when compared with vehicle treatment.
Results are shown as percent change normalized to the vehicle treatment condition. The horizontal hard line depicts average and the dotted lines depict SEM of the vehicle treated wells. Representative Western blot images are presented. […] Representative Western blot images are presented. […] The drugs (5 mg/kg) were administered subchronically (at 24 h, 4 h and 30 min prior to sacrifice) to HDAC6 KO and WT littermates. The changes in tubulin acetylation were measured in tissue lysates from cortex (ctx), hippocampus (Hpc), dorsal Raphe nucleus (DRN) and cerebellum (cb). The tubulin acetylation levels in drug-treated mice are expressed as percent change of the vehicle-treated mice of the corresponding genotype. The horizontal lines depict the average tubulin acetylation±SEM in the vehicle treated mice. The representative Western blot images show the changes induced by each drug treatment in the hippocampus (left column) and dorsal raphe (right column) of WT and HDAC6 KO mice.
In contrast to the class I isoforms HDAC2 and 3, which are expressed highly and ubiquitously in the mouse brain, HDAC6 mRNA expression appears to be restricted to a small number of brain areas, with highest signal observed in DRN (FIG. 13f). […] No changes in total α-tubulin expression were detected (FIG. 14a).

[9] = tested on: mice; assay: Open-field test; format: in vivo, mouse
[10] = biological target: HDAC1 (Homo sapiens, UniProt Q13547); assay: HDAC enzyme assay, HDAC1
HDAC1, sequence (Q13547 whole entry): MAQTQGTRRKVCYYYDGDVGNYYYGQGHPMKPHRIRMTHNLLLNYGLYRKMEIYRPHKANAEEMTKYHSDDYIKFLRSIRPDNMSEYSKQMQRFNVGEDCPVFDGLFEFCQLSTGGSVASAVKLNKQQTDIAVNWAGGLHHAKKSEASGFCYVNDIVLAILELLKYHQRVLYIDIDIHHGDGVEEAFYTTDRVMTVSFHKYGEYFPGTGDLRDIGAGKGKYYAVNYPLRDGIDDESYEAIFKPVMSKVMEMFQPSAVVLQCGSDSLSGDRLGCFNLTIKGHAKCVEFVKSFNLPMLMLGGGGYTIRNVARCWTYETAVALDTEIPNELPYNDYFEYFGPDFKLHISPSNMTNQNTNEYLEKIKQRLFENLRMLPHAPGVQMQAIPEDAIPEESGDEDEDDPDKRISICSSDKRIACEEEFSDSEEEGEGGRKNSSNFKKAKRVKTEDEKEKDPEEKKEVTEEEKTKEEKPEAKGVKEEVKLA

[11] = tested on: histone H3 lysine 9 acetylation; assay: Histone H3K9 acetylation in vivo (Western blot, ChIP); design: species or system mouse; details: in vivo treatment
[12] = tested on: mice; assay: Elevated plus maze (EPM); format: in vivo, mouse; details: acute administration
[13] = tested on: mice; assay: Marble-burying task; format: in vivo, mouse; details: acute administration

O=C(NO)c1cnc(NC2(c3cccc(F)c3)CCCCC2)nc1 [Compound 101, 2-((1-(3-fluorophenyl)cyclohexyl)amino)-N-hydroxypyrimidine-5-carboxamide]
Kp ([1]; C57BL/6J, intraperitoneal, read-out: AUCBrain/AUCplasma): 1.26 | concentration at 30 min ([1]; C57BL/6J, plasma, intraperitoneal, 5 mg/kg, read-out: 30 min plasma concentration (ng/ml) - 5 mg/kg): 496 ng/mL | concentration at 30 min ([1]; C57BL/6J, plasma, intraperitoneal, 50 mg/kg, read-out: 30 min plasma concentration (ng/ml) - 50 mg/kg): 1360 ng/mL | Cmax ([1]; C57BL/6J, plasma, ip, 5 mg/kg, mice, acute i.p. dosing, read-out: Cmax): 915 ng/mL | half-life ([1]; C57BL/6J, plasma, ip, mice, acute i.p. dosing, read-out: T½ plasma (converted)): 30 min | Kp ([1]; intraperitoneal, read-out: AUCBrain/AUCplasma ratio): > 1 | concentration at 30 min ([1]; plasma, intraperitoneal, acute 50 mg/kg injection, read-out: plasma level at t=30 minutes): 1360 ng/mL and 4.1 µM | concentration at 2 h ([1]; plasma, intraperitoneal, read-out: plasma concentration after two hours): < 10 ng/mL | half-life ([1]; plasma, intraperitoneal, read-out: plasmatic half-life): 12 min | HDAC3 fold versus HDAC6 (in brackets) [2]: (1498.8x) | HDAC3 fold versus HDAC6 (in brackets) ([2]; Table 3): 1496 x | immobility in TST ([3]; 5 mg/kg): No significant effect | immobility in TST ([3]; 50 mg/kg i.p., 30 minutes): Significant reductions | change in histone H3K9 acetylation [4]: no significant change | IC50 [5]: > 1000 nM | HDAC2 fold versus HDAC6 (in brackets) [6]: (343.2x) | HDAC2 fold versus HDAC6 (in brackets) ([6]; Table 3): 342 x | α-tubulin acetylation over baseline levels ([7]; HDAC6 KO mice, identical treatment regimens): did not produce increases | α-tubulin acetylation in cortex, hippocampus, DRN, cerebellum ([7]; wild-type mice, 24 h, 4 h, 30 m before sacrifice, compound 73 5 mg/kg, compound 101 50 mg/kg): significant increases | acetylated (lysine 40) fraction of α-tubulin [8]: increases | exploratory activity in novel open-field arena ([9]; acute, compounds 73, 101 50 mg/kg, tubastatin A 10 mg/kg): hyperlocomotor effects | distance in the center of the open field ([9]; mouse, in vivo): 419±73 beam breaks | open-field exploration in neural cell selective HDAC6 KO mice ([9]; same doses (50 mg/kg)): did not significantly alter | HDAC1 fold versus HDAC6 (in brackets) ([10]; Table 3): 283 x | HDAC1 fold versus HDAC6 (in brackets) ([10]; selectivity HDAC6 over HDAC1): (283.5x) | acetylation of histone 3 at lysine 9 in Western blot [11]: did not significantly alter | behavioral changes / time in the open arms of the maze [12]: neither compound 73 nor compound 101 produced behavioral changes | number of marbles buried [13]: significantly reduced
